Measurements: ChEMBL document CHEMBL2424570, “New synthetic approach to coumarino[4,3-b]pyridine systems and potential cytotoxic evaluation” (Med Chem Res, 2013)

What was measured:
[1] = tested on: Ehrlich; test: Ratio of 5-fluorouracil IC25 to compound IC25 for mouse EAC cells; assay type: functional
[2] = Antitumor activity against mouse EAC cells by trypan blue exclusion assay; assay type: functional, cell-based, Ehrlich; conditions: for IC25 / IC50: Mus musculus, Ehrlich
[3] = tested on: Ehrlich; test: Ratio of 5-fluorouracil IC50 to compound IC50 for mouse EAC cells; assay type: functional
[4] = tested on: Ehrlich; test: Ratio of 5-fluorouracil IC100 to compound IC100 for mouse EAC cells; assay type: functional

| SMILES | Ratio [1] | IC100 [2] [µM] | IC25 [2] [nM] | IC50 [2] [nM] | Ratio IC50 [3] | Ratio [4] |
| --- | --- | --- | --- | --- | --- | --- |
| O=c1oc2ccccc2c2nc(/C=C/c3ccccc3)cc(-c3ccccc3)c12 | 3 | 0.27 | 60 | 130 | 3 | 3 |
| Nc1c(C(c2ccc(Cl)cc2)c2c(N)c3ccccc3oc2=O)c(=O)oc2ccccc12 | 3 | 0.25 | 60 | 120 | 3 | 3 |
| O=c1oc2ccccc2c2nc3c(c(-c4ccccc4)c12)CCC/C3=C\c1ccccc1 | 3 | 0.24 | 60 | 120 | 3 | 3 |
| O=C1c2ccccc2-c2nc3c(c(-c4ccccc4)c21)c(=O)oc1ccccc13 | 3 | 0.27 | 60 | 130 | 3 | 3 |
| O=c1oc2ccccc2c2nc(-c3ccccc3)cc(-c3ccc([N+](=O)[O-])cc3)c12 | 3 | 0.25 | 60 | 120 | 3 | 3 |
| O=c1[nH]cc(F)c(=O)[nH]1 [FLUOROURACIL] |  | 0.77 | 190 | 380 |  |  |
